In patent US20190000850A1, “COMBINATION CANCER THERAPY” (The Regents of the University of California, priority 2015, published 2019):

Legend:
[1] = target: ATR (Homo sapiens, UniProt Q13535); conditions: read-out: IC50 against primary target (ATR); cited from earlier work
[2] = system: p185^BCR-ABLArf^−/− pre-B cells; assay: dCTP pool and DNA-C measurement with [U-^13C9,^15N3]dC and [U-^13C6]glucose; type: cell-based, mouse; conditions: 3, 6, 9 and 12 h treatment
Text: Therefore, p185^BCR-ABLArf^−/− pre-B cells were labeled with [U-^13C9,^15N3]dC and [U-^13C6]glucose to measure the contribution of salvage pathway via dCK and de novo pathway via RNR, respectively.

[3] = system: Jurkat cells; assay: dGTP/DNA-G biosynthesis with [^13C6]glucose and [^15N5]dG labeling; type: cell-based
Method: Another approach to study dGTP/DNA-G biosynthetic pathways is through anticancer therapy Forodesine (BCX-1777). The precursor for DNA-G, dGTP, can be produced from glucose via the de novo pathway and from salvage of extracellular dG either as nucleobase and/or intact nucleoside (FIG. 42A). […] Jurkat cells were labeled for 18 h in the following conditions: untreated, PNP inhibitor (BCX-1777) and DI-82, a specific dCK inhibitor. The labeled media contained […] [U-^13C6]glucose to represent the de novo contribution and 5 μM [^15N5]dG to represent salvage pathways. At the end of the incubation time, [^15N5]dG decreased nearly three orders of magnitude in the culture media from the untreated Jurkat cells, reflecting the high PNP activity in these leukemia cells (FIG. 42B). In contrast, the culture media from BCX-1777 treated cells contained 1.8 μM [^15N5]dG, indicative of reduced dG catabolism.
(§1) Cells were transferred into RPMI-1640 without glucose and supplemented with 10% dialyzed FBS (Gibco) containing any of the following labeled substrates (Cambridge Isotopes): precursors for de novo [U-^13C6]glucose (Sigma-Aldrich) at 11 mM; precursors for purine salvage [U-^13C10,^15N5]dA (Cambridge Isotopes), [^15N5]dA (Cambridge Isotopes), [^15N5]dG (Cambridge Isotopes), [U-^13C5,^15N4]Hx (Cambridge Isotopes) at 5 μM or as indicated in the text; and precursors for pyrimidine salvage: [U-^13C9,^15N3]dC (Silantes) and [U-^13C10,^15N2]dT (Cambridge Isotopes) at 5 μM. The cells were incubated for 18 h or as indicated in the text before samples collection and processing.
(§2) Culture medium was collected 20 μL at the indicated time points. Stock solutions (10 mM) of [U-^13C10,^15N5]dA, and [^15N3]dC (Cambridge Isotope Laboratories) were prepared individually in dimethyl sulfoxide (DMSO), and stored at −20° C. before use as internal standards. The internal standards were diluted to 20 nM in methanol to generate internal standard solution. Calibration standards were prepared by spiking working stock solutions of [U-^13C10,^15N5]dA and [U-^13C9,^15N3]dC blank media to give concentrations in the 10 nM-10 μM range. Each 20 μL calibration standard sample was mixed with 60 μL of internal standard solution, mixed (30 s) and centrifuged (15,000 g, 10 min, 4° C.) and 60 μL of supernatant were transferred into a clean mass spec vial for LC-MS/MS-MRM analysis. Media samples were processed similarly and in parallel to the calibration standard samples.
Cells were collected into microcentrifuge tube and centrifuged (450×g, 4 min, 4° C.). The supernatant was carefully aspirated. The cells were washed twice by the addition of 1 mL of cold PBS and centrifugation (450×g, 4 min 4° C.). PBS washes were aspirated. […]

[4] = Solubility study in phosphate buffer solution; type: physicochemical; conditions: aqueous buffer
[5] = system: CEM cells; assay: Mass spectrometric assay of de novo (RNR) and salvage (dCK) contribution to dCTP and DNA-C; type: cell-based; conditions: G1 released CEM cells
Method: To analyze the differential utilization of de novo and nucleotide biosynthetic salvage pathways, cultured cells were incubated with stable isotope labeled DNA precursors. […] Extracted dNTP and DNA were analyzed in a triple quadrupole mass spectrometer (QQQ) using multiple reaction monitoring (MRM). The first (Q1) and third (Q3) quadrupoles function as mass filters while the second (Q2) quadrupole serves as a collision chamber. […] In Q2, the glycosidic bond of the selected dC is cleaved, releasing a protonated nucleobase (NB) fragment and a neutral deoxyribose (dR) molecule. The m/z specific NB fragments from dC is separated in Q3 and detected to generate ion chromatograms. […] Each identifier corresponded to a specific biosynthetic pathway and is defined as [x;y], where “x” is the number of heavy isotope-labeled atoms in NB and “y” is the number of heavy isotope atoms in dR. […] According to current biochemical maps of nucleotide metabolism, the [7;5] identifier can only arise from salvaging [U-^13C9,^15N3]dC into newly synthesized DNA. In contrast, a dC with a [0,5] identifier is a product of the de novo pathway. The ratio of the peak areas in the ion chromatograms of salvage [7;5] and de novo [0;5] identifiers describes the relative contributions of the two biosynthetic routes to the dCTP pool used for DNA replication.
Genomic DNA was extracted using the Quick-gDNA MiniPrep kit (Zymo Research, D3021) and hydrolyzed to nucleosides using the DNA Degradase Plus kit (Zymo Research, E2021) following manufacturer-supplied instructions. In the final step of DNA extraction, 50 μL of water was used to elute the DNA. A nuclease premix solution was prepared by mixing 10× buffer, DNA degradase Plus™ and water in the ratio of 2.5/1/1.5 (v/v/v). DNA hydrolysis reaction was prepared in mass spec vials by mixing 5 μL of the nuclease premix solution (5 U of enzyme) and 20 μL of eluted genomic DNA, the total volume becomes 25 μL. The samples were tapped and flicked downward prior to overnight before incubation at 37° C.
Cells were collected into microcentrifuge tube and centrifuged (450×g, 4 min, 4° C.). The supernatant was carefully aspirated. The cells were washed twice by the addition of 1 mL of cold PBS and centrifugation (450×g, 4 min 4° C.). PBS washes were aspirated. Thereafter, cells were lysed in 40 μL of 70% methanol/water (v/v), vortexed (30 s) and incubated on ice for 10 min. Then 40 μL of chloroform (Fisher) was added, vortexed (30 s) and incubated on ice for another 10 min. The samples were then centrifuged at max speed for 10 min at 4° C. Finally, the supernatant was transferred (≈25 μL) into a mass spec vial.
For genomic DNA and media analysis, an aliquot of DNA hydrolysis or media samples (20 μL) was injected directly onto a porous graphitic carbon column (Thermo Fisher Scientific Hypercarb, 100×2.1 mm, 5 μm particle size) equilibrated in solvent A (water/acetonitrile/formic acid, 95/5/0.2, v/v/v) and eluted (200 μL/min) with an increasing concentration of solvent B (acetonitrile/water/formic acid, 90/10/0.2, v/v/v): min/% B/flow rate (μL/min); 0/0/200, 5/0/200, 10/15/200, 20/15/200, 21/40/200, 25/50/200, 26/100/700, 30/100/700, 3I/O/700, 34/0/700, 35/0/200).

[6] = system: CCRF-CEM T-ALL cells; assay: EdU pulse assay of cell cycle progression after release from G1 arrest; type: cell-based; conditions: synchronized CEM cells released from G1
Method: Following release from G1, cells progress to early, mid and late S phase (defined as S1, S2 and S3, respectively) and G2/M. By 18 h following release in drug-free media, 42.5% of cells progressed to S3. […] Thus, dCK represents a resistance mechanism to ATR inhibition.
Cells were treated with a CDK4/6 inhibitor, PD-0332991 (Selleckchem) for 18 h to arrest in G1 phase. Subsequently, cells were washed and released into fresh media containing 10% FBS to monitor the progression of synchronized cells throughout the cell cycle by flow cytometry analysis.
For measuring cell cycle progression of synchronous population of cells, cells were first arrested in G1 phase, then washed and released in treated media. Before collecting and fixing cells at various time points, cells were pulse-labeled with 10 μM EdU for 1 h, and then click-labeled with azide-Alexa Fluor 647 (Invitrogen; Click-iT EdU Flow cytometry kit) according to manufacturer's protocol. Total DNA content was assessed by staining with FxCycle-Violet (Invitrogen) at 1 μg/mL final concentration in PBS containing 2% FBS.

[7] = system: Jurkat cells; assay: dATP/DNA-A biosynthesis with [^13C6]glucose and [^15N5]dA labeling; type: cell-based
Method: The precursor for DNA-A, dATP, can be produced from glucose via the de novo pathway and from salvage of extracellular dA either as nucleobase and/or intact nucleoside (FIG. 41A). […] Pharmacological perturbations were used to investigate the contributions of each dA salvage pathway (FIG. 41A). Jurkat cells were labeled for 18 h in the following conditions: untreated, ADA inhibitor Pentostatin (dCF) and DI-82, a specific dCK inhibitor. The labeled media contained […] [U-^13C6]glucose to represent the de novo contribution and 5 μM [^15N5]dA to represent salvage pathways. At the end of the incubation time, [^15N5]dA was undetectable in the culture media from the untreated Jurkat cells, reflecting the high ADA activity in these leukemia cells (FIG. 41B). In contrast, the culture media from dCF treated cells contained 1.5 μM [^15N5]dA, indicative of reduced dA catabolism.
as §1, §2
Cells were collected into microcentrifuge tube and centrifuged (450×g, 4 min, 4° C.). The supernatant was carefully aspirated. The cells were washed twice by the addition of 1 mL of cold PBS and centrifugation (450×g, 4 min 4° C.). PBS washes were aspirated. Thereafter, cells were lysed in 40 μL of 70% methanol/water (v/v), vortexed (30 s) and incubated on ice for 10 min. […]

[8] = target: T1, Chk1 (Homo sapiens, UniProt O14757); conditions: read-out: IC50 against primary target (Chk1); cited from earlier work
T1 sequence (O14757 1-476): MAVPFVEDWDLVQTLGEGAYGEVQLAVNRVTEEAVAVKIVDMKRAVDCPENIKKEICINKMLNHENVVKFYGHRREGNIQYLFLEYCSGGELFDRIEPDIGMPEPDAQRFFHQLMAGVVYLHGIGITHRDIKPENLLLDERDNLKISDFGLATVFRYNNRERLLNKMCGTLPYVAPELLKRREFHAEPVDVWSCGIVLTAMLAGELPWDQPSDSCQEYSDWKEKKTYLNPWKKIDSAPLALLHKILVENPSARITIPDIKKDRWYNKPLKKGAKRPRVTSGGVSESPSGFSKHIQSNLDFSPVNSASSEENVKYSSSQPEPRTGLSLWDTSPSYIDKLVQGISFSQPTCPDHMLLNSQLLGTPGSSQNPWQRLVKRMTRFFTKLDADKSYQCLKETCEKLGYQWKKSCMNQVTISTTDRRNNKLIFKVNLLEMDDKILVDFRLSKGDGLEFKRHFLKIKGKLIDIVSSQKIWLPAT

[9] = cited from earlier work
[10] = system: Jurkat cells; assay: Cell cycle histograms (DNA content), 24 h treatment; type: cell-based; conditions: dCF with 5 μM dA
Method: Cells were plated at the density of 0.5 million cells per ml per well in respective media/treatment. After 24 h incubation, cells were harvested and washed with PBS twice before staining with 0.5 ml of propidium iodide (Calbiochem, 1 μg/ml) solution containing Ribonuclease A and 0.3% Triton-X 100. The samples were protected from light before acquisition by flow cytometry.

[11] = system: leukemia cell growth; assay: IC50 (cytotoxicity assay) of RNR inhibitors, Table 1; type: cell-based
Method: Cells were plated in a 384-well plate (1,000 cells/well for suspension cell lines and 500 cells/well for adherent cell lines in 30 μL). For suspension cell lines, the plate was incubated in 37° C. for 1 h to let the cells settle. For adherent cell lines, the plate was incubated overnight to allow the cells to seed. During incubation, drugs were diluted to desired concentration by serial dilution, vehicle condition was created by adding equivalent amount of DMSO. After incubation, 10 μL of diluted drugs were added to each well, and incubated for 72 h. After incubation, Cell TiterGlo reagent was added to each well according to manufacturer's instructions (Promega, CellTiter-Glo® Luminescent Cell Viability Assay). The plates were shaken for 2 min and incubated in dark for 8 min. Luminescence readings were obtained with luminometer (Molecular devices, SpectraMax).

[12] = target: ATM (Homo sapiens, UniProt Q13315); conditions: cited from earlier work

Chain of ATR (Q13535 whole entry): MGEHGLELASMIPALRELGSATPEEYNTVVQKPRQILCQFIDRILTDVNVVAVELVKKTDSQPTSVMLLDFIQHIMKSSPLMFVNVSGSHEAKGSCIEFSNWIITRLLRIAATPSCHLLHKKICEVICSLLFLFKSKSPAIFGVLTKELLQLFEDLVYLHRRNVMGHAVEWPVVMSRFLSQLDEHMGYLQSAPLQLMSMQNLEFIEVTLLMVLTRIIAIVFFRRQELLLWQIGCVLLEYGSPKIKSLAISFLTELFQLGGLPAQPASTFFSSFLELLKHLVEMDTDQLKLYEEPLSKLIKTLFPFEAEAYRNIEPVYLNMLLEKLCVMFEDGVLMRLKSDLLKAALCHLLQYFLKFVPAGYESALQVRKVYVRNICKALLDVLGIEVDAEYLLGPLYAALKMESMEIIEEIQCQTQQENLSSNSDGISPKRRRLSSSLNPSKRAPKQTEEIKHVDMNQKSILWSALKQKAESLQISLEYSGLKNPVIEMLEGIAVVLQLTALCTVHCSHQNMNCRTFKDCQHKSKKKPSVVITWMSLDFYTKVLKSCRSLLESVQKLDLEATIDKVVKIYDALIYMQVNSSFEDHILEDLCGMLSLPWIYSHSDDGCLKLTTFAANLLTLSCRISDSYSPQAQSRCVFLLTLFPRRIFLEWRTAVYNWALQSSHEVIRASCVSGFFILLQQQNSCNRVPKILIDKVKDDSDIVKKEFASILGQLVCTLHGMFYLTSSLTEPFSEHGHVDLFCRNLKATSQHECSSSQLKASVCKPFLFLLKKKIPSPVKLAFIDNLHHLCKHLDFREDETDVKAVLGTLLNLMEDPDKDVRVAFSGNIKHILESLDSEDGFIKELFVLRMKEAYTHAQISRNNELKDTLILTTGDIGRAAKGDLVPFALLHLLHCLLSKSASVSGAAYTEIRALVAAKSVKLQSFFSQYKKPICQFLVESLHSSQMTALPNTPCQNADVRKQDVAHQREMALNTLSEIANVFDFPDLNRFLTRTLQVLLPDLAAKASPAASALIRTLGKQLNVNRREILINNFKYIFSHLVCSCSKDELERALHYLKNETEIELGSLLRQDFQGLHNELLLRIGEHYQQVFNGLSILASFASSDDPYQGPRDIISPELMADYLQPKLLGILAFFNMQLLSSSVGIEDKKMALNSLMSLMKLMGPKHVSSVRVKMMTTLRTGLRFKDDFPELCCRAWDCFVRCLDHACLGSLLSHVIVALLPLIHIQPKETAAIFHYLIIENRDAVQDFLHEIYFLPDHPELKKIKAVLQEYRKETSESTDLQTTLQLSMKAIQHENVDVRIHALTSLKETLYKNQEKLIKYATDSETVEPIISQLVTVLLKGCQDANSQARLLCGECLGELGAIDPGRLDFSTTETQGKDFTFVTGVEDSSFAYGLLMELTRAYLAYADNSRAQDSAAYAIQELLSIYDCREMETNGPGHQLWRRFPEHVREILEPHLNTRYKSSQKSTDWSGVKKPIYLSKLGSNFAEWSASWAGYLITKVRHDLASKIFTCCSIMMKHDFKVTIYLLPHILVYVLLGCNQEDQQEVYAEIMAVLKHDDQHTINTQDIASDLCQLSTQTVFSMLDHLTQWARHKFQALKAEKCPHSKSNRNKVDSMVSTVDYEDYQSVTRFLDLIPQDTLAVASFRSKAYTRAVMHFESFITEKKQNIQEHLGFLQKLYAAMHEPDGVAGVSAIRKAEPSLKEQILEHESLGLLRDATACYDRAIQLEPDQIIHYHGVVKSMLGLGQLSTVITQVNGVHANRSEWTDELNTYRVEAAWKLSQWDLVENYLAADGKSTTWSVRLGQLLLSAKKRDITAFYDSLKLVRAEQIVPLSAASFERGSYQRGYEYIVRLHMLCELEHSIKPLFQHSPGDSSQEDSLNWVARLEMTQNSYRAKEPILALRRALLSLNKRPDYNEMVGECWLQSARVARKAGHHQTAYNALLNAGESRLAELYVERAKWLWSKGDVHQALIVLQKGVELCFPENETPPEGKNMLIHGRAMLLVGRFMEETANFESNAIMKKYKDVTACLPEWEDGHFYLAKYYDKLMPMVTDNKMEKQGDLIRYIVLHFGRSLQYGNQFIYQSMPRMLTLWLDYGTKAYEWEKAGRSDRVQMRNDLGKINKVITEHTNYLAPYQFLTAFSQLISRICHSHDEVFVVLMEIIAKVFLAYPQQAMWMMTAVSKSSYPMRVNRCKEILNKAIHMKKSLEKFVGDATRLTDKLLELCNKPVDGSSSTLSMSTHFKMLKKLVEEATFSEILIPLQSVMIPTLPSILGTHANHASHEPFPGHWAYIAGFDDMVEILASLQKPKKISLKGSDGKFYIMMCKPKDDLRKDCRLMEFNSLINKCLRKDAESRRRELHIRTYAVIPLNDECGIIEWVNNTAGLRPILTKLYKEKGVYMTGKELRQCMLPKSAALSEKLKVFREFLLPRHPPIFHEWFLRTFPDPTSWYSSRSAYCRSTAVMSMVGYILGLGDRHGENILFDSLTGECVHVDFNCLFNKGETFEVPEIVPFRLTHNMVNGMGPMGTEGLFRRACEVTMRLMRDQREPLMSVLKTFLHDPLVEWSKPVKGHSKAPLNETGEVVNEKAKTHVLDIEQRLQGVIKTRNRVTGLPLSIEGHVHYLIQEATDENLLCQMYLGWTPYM
Chain of ATR (Q8WXE1 whole entry partner): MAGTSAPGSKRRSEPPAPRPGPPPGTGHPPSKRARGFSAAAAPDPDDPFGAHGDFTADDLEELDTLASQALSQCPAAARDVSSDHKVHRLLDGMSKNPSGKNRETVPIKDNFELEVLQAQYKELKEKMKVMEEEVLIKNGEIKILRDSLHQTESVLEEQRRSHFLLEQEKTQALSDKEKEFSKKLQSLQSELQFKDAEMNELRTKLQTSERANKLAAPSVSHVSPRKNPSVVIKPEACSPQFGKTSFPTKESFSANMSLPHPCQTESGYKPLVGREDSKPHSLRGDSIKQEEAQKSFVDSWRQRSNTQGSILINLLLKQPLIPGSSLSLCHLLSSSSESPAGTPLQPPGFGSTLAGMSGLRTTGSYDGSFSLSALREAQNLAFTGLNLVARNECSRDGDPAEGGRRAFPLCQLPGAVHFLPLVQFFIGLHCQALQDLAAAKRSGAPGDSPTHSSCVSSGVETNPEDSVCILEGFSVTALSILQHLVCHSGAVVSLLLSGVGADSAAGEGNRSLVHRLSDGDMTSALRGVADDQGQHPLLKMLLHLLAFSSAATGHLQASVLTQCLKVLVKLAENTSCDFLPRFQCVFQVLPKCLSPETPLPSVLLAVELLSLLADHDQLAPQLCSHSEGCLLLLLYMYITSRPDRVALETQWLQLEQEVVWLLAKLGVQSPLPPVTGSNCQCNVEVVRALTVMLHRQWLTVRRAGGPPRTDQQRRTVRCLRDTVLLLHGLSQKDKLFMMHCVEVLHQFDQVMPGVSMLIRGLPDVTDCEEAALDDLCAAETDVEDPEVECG

Cn1c(=O)n(-c2ccc(C(C)(C)C#N)cc2)c2c3cc(-c4cnc5ccccc5c4)ccc3ncc21 [NVP-BEZ235]
IC50 [1]: 0.021 µM

COc1ccc(-c2nc(C(C)Sc3nc(N)cc(N)n3)c(C)s2)cc1OCCNS(C)(=O)=O (centres unmarked) [DI-82, N-(2-(5-(4-(1-((4,6-diaminopyrimidin-2-yl)thio)ethyl)-5-methylthiazol-2-yl)-2-methoxyphenoxy)ethyl)methanesulfonamide]
dCTP pool [2]: nearly depleted
effect on the increased dGTP pool level caused by BCX-1777 ([3]; 1 μM DI-82 added to BCX-1777): completely reversed
solubility [4]: < 0.3 mg/mL
contribution of dCK to dCTP and DNA-C [5]: completely abrogates
effect on cell cycle progression [6]: does not significantly impair cell cycle progression
effect on the increased dATP pool level caused by dCF ([7]; 1 μM DI-82 added to dCF): completely reversed

COc1cc(Nc2cnc(C#N)c(O[C@H](C)CN(C)C)n2)ncc1-c1cnn(C)c1 [CCT244747]
IC50 [8]: 0.029 to 0.17 µM
oral bioavailability [9]: bioavailable)

OC[C@H]1O[C@@H](n2cnc3c2NC=NC[C@H]3O)C[C@@H]1O [dCF, Pentostatin]
reduction of the proportion of cells in G2/M [10]: more than 2 fold
reduction of the proportion of cells in S-phase [10]: 3 fold
[^15N5]dA in the culture media at the end of incubation ([7]; 18 h, 10 μM dCF, 5 μM [^15N5]dA added): 1.5 µM
increase of dATP pools compared to untreated cells ([7]; 18 h, ADA inhibition by dCF): 6 fold
increase in dA salvage into dATP ([7]; 18 h, dCF): over 190 fold

Cc1occc(=O)c1[O-].Cc1occc(=O)c1[O-].Cc1occc(=O)c1[O-].[Ga+3] [Gallium Maltolate]
IC50 ([11]; 3-AP: cell type independent): 30 µM

NC(=O)NO [Hydroxyurea]
IC50 ([11]; 3-AP: cell type independent): 39 µM

CCN1CCC(Oc2c(C#N)ncc3[nH]c4ncccc4c23)CC1 [GDC0425]
oral bioavailability [9]: orally bioavailable

N#Cc1cc2c(cn1)[nH]c1ncc(-c3ccc(CN4CCCCC4)cc3)cc12 [GNE-900]
IC50 [8]: 0.001 µM

C[C@@H]1COCCN1c1cc(C2([S@](C)(=N)=O)CC2)nc(-c2cc[nH]c3nccc2-3)n1 [AZD6738]
oral bioavailability [9]: bioavailable)

O=c1[nH]cnc2c([C@@H]3N[C@H](CO)[C@@H](O)[C@H]3O)c[nH]c12 [BCX-1777, Forodesine]
[^15N5]dG in the culture media at the end of incubation ([3]; 18 h, 5 nM BCX-1777, 5 μM [^15N5]dG added): 1.8 µM
increase in dG salvage into dGTP ([3]; 18 h, BCX-1777): over 300 fold
increase of dGTP pools compared to untreated cells ([3]; 18 h, PNP inhibition by BCX-1777): 6 fold

Cc1cn([C@H]2C[C@H](O)[C@@H](CO)O2)c(=O)[nH]c1=O [Thymidine]
IC50 ([11]; cell type dependent, range printed with two units (μM to mM)): 50 to 5000 µM

N[C@@H]1CCCN(c2c(Br)cnc3[nH]cc(NC(=O)C4CC4)c23)C1 [GDC0575]
oral bioavailability [9]: orally bioavailable

CS(=O)(=O)c1ccc(-c2cnc(N)c(C(=O)Nc3ccccc3)n2)cc1 [VE-821]
IC50 [1]: 0.019 µM
IC50 [12]: 34 µM
